Source: patent US4136163A, “P-Menthane carboxamides having a physiological cooling effect” (Wilkinson Sword Limited, priority 1971, dated 1979)

Test system: cold receptors
Test: Cooling effect of consumer product applied to skin (face, scalp, lips, forehead)
Format: in vivo, human
Conditions: Example 3, toilet water, 3.0%, skin
Description: Into two separate samples of the base lotion were added 2.0% by weight based on the total composition of N-ethyl-p-menthane-3-carboxamide and N,N-dimethyl-p-menthane-3-carboxamide, each into a different one of the two samples.
To the recipe was added 3.0%, based on the total composition of N-p-menth-3-oylglycine methyl ester. […]
Sodium lauryl ether sulphate, 10 g., was dispersed in 90 g. water in a high speed mill. To the dispersion was added 3.3% by weight of N-(2-hydroxy-n-propyl)-p-menthane-3-carboxamide. […]
The sodium stearate was dissolved by stirring in a warm mixture of the ethanol propylene glycol and water. To the solution was added the perfume and 3.0% of N-(2-hydroxy-n-propyl)-p-menthane-3-carboxamide and the mixture then allowed to solidify into a waxy cake. […]
This Example illustrates now the physiological cooling effect of the compounds of this invention varies according to the locality of application.
In the course of grinding there was added 3.0% of N-n-propyl-p-menthane-3-carboxamide. […]
To this liquid was added 1.0% of N-ethyl-p-menthane-3-carboxamide. A paper tissue was then soaked in the liquid.

`COC(=O)CNC(=O)C1CC(C)CCC1C(C)C` (centres unmarked) [H, --CH2 COOCH3, N-(p-menth-3-oyl)glycine methyl ester] was tested, and the cooling effect was “a cooling effect was clearly noticeable on the skin well after the termination of any cooling effect attributable to the evaporation of the alcoholic carrier”.

Same assay, conditions: Example 4, deodorant composition, 1.3%, skin

In the case of `CNC(=O)C1CC(C)CCC1C(C)C` (centres unmarked) [H, --CH3, N-methyl-p-menthane-3-carboxamide], the cooling effect is reported as “definte cooling sensation on the skin”.

Same assay, conditions: Example 6, lipstick, 0.6%, lips

`CC1CCC(C(C)C)C(C(=O)NCC(=O)O)C1` (centres unmarked) [H, --CH2 COOH, N-(p-menth-3-oyl) glycine] was tested, and the cooling effect was “a persistent cooling effect is clearly noiticeable”.

Same assay, conditions: Example 8, hair tonic, 2.0%, scalp

`COC(=O)CNC(=O)C1CC(C)CCC1C(C)C` (centres unmarked) [H, --CH2 COOCH3, N-(p-menth-3-oyl)glycine methyl ester] was tested, and the cooling effect was “a cooling effect is noticed”.

Same assay, conditions: Example 21, antiseptic ointment, 0.5%, skin

`COC(=O)CNC(=O)C1CC(C)CCC1C(C)C` (centres unmarked) [H, --CH2 COOCH3, N-(p-menth-3-oyl)glycine methyl ester] was tested, and the cooling effect was “marked cooling effect”.

Same assay, conditions: Example 22, antipruritic ointment, 0.1%, skin

In the case of `CCCOC(=O)CNC(=O)C1CC(C)CCC1C(C)C` (centres unmarked) [H, --CH2 COOC3 H7 (n), N-(p-menth-3-oyl)glycine n-propyl ester], the cooling effect is reported as “soothing effect on the skin accompanied by a noticeable cooling effect”.

Same assay, conditions: Example 24 repeated, cleansing tissue, 2.0%, skin, in place of the N-ethyl compound

For `CC1CCC(C(C)C)C(C(=O)NCCCO)C1` (centres unmarked) [H, --(CH2)3 OH, N-3-hydroxypropyl-p-menthane carboxamide], the cooling effect was “equally effective results”.

Test system: cold receptors
Test: Threshold test: minimum quantity of compound on filter paper square on tongue giving a noticeable cooling effect, selected panel of 6 people
Format: in vivo, human
Conditions: panel of 6 people, cooling reported 50% of the time
Excerpt: For example, a controlling factor in the onset of cooling effect, its intensity and longevity will be the rate of penetration of the compounds through the epidermis and this will vary in different locations on the human body.
It will also benoted that the described test procedure is done on a statistical basis. This is necessary since sensitivity to these compounds will vary not only from compound to compound and from one part of the body to another, but also from one individual to another. Tests of this nature are commonly used in the testing of the organoleptic properties, e.g. taste, smell etc. of organic and inorganic compounds, see Kirk-Othmer: Encyclopedia of Chemical Technology, 2nd. Ed.
The following test procedure is aimed at determining the minimum quantity of the test compound required to produce a noticeable cooling effect on a person of average sensitivity, this minimum quantity being termed the threshold for that particular compound. The tests are carried out on a selected panel of 6 people of median sensitivity to 1-menthol.
To select a test panel of average sensitivity the following procedure is used. Known quantities of 1-menthol in solution in petroleum ether (bp.40-60) are placed on 5 mm. squares of filter paper, whereafter the solvent is allowed to evaporate. A panel of observers is enrolled and asked to place one impregnated square at a time on the tongue and to report on the presence or absence of a cooling effect. […] Conveniently, one starts with squares containing 2.0 μg. 1-menthol, the amount on each successive square being half that of the preceding square, i.e. the second test square will contain 1.0 μg, the third 0.5 μg and so on. Each quantity is tested on the tongue at least 10 times. In this way, the thresholds to cold receptor stimulus by 1-menthol are determined for each individual of the panel, the threshold for each individual being that amount of 1-menthol for which, in a series of not less than 10 test applications, a cooling effect is reported 50% of the time.
To test the activity of compounds according to this invention, the above procedure is repeated using only the 6 selected panel members of average sensitivity to 1-menthol. The individual thresholds for each test compound on each of the 6 selected panel members are determined and averaged. Those compounds whose average threshold on the select test panel is 100 μg or less are regarded as having cooling activity in accordance with this invention.

First: CC1CCC(C(C)C)C(C(=O)N2CCCC2)C1 (centres unmarked) [--(CH2 H4 --]
Second: CC1CCC(C(C)C)C(C(=O)N2CCCCC2)C1 (centres unmarked) [--(CH2)5 --]
The “Threshold (average minimum quantity to produce a noticeable cooling effect)” value of the first is lower: 5 µg for the first, 6 µg for the second.

First: CCN(CC)C(=O)C1CC(C)CCC1C(C)C (centres unmarked) [--C2 H5, --C2 H5]
Second: CCN(CC(C)C)C(=O)C1CC(C)CCC1C(C)C (centres unmarked) [--C2 H5, --C4 H9 (iso)]
The “Threshold (average minimum quantity to produce a noticeable cooling effect)” value of the first is lower: 3 µg for the first, 5 µg for the second.

First: CC1CCC(C(C)C)C(C(=O)N(CCO)C(C)C)C1 (centres unmarked) [--C3 H7 (iso), --CH2 CH2 OH]
Second: CC1CCC(C(C)C)C(C(=O)N(C)CCO)C1 (centres unmarked) [--CH3, --CH2 CH2 OH]
The “Threshold (average minimum quantity to produce a noticeable cooling effect)” value of the first is lower: 3 µg for the first, 5 µg for the second.

Going from `CC1CCC(C(C)C)C(C(=O)N2CCNCC2)C1` (centres unmarked) [--CH2 CH2 NHCH2 CH2 --] to `CC1CCC(C(C)C)C(C(=O)N2C(C)CCC2C)C1` (centres unmarked) [--CH(CH3)CH2 CH2 CH(CH3)--], the “Threshold (average minimum quantity to produce a noticeable cooling effect)” value falls from 15 µg to 0.5 µg.

Going from `CCOC(=O)CN(C)C(=O)C1CC(C)CCC1C(C)C` (centres unmarked) [--CH3, --CH2 CO2 C2 H5] to `CCOC(=O)CNC(=O)C1CC(C)CCC1C(C)C` (centres unmarked) [H, --CH2 COOC2 H5], the “Threshold (average minimum quantity to produce a noticeable cooling effect)” value falls from 0.8 µg to 0.2 µg.

Compared with `CC1CCC(C(C)C)N(C(=O)C2CC(C)CCC2C(C)C)CC1` (centres unmarked) [--CH(iso-C3 H7)CH2 CH2 CH(CH3)CH2 CH2 --], `CC1CCC(C(C)C)C(C(=O)NC(C)C)C1` (centres unmarked) [H, --C3 H7 (iso)] is lower in “Threshold (average minimum quantity to produce a noticeable cooling effect)” value: 50 µg for the first, 0.5 µg for the second.

`CC1CCC(C(C)C)C(C(=O)Nc2cccnc2)C1` (centres unmarked) [H, --3-Pyridyl] and `CC1CCC(C(C)C)C(C(=O)Nc2ccc(F)cc2)C1` (centres unmarked) [H, --C6 H4 F(p)] are the same in “Threshold (average minimum quantity to produce a noticeable cooling effect)” value: 0.5 µg for the first, 0.5 µg for the second.

First: CC1CCC(C(C)C)C(C(=O)NCCCO)C1 (centres unmarked) [H, --(CH2)3 OH, N-3-hydroxypropyl-p-menthane carboxamide]
Second: CCCCNC(=O)C1CC(C)CCC1C(C)C (centres unmarked) [H, --C4 H9 (n)]
The “Threshold (average minimum quantity to produce a noticeable cooling effect)” value of the first is higher: 3 µg for the first, 1.4 µg for the second.

Compared with `CC1CCC(C(C)C)C(C(=O)NCCCCCCO)C1` (centres unmarked) [H, --(CH2)6 OH], `CCCCCNC(=O)C1CC(C)CCC1C(C)C` (centres unmarked) [H, --C5 H11 (n)] is higher in “Threshold (average minimum quantity to produce a noticeable cooling effect)” value: 1.0 µg for the first, 3 µg for the second.

`CC1CCC(C(C)C)C(C(=O)NC2CC2)C1` (centres unmarked) [H, --C3 H5 (cyclo)] and `CC1CCC(C(C)C)C(C(=O)NC2CCCC2)C1` (centres unmarked) [H, --C5 H9 (cyclo)] are the same in “Threshold (average minimum quantity to produce a noticeable cooling effect)” value: 0.5 µg for the first, 0.5 µg for the second.

First: CC(C)CNC(=O)C1CC(C)CCC1C(C)C (centres unmarked) [H, --C4 H9 (iso)]
Second: CC1CCC(C(C)C)C(C(=O)NCO)C1 (centres unmarked) [H, --CH2 OH]
The “Threshold (average minimum quantity to produce a noticeable cooling effect)” value of the first is lower: 0.9 µg for the first, 12 µg for the second.

Compared with `CCC(C)NC(=O)C1CC(C)CCC1C(C)C` (centres unmarked) [H, --C4 H9 (sec)], `CCC(CO)NC(=O)C1CC(C)CCC1C(C)C` (centres unmarked) [H, --CH(C2 H5)CH2 OH] is higher in “Threshold (average minimum quantity to produce a noticeable cooling effect)” value: 0.7 µg for the first, 1.0 µg for the second.

Going from `CC1CCC(C(C)C)C(C(=O)NC(C)(C)C)C1` (centres unmarked) [H, --C4 H9 (tert.)] to `CNC(=O)C1CC(C)CCC1C(C)C` (centres unmarked) [H, --CH3, N-methyl-p-menthane-3-carboxamide], the “Threshold (average minimum quantity to produce a noticeable cooling effect)” value rises from 0.4 µg to 1.1 µg.

`Cc1ccc(NC(=O)C2CC(C)CCC2C(C)C)cc1C` (centres unmarked) [H, --C6 H3 Me2 (m,p)] and `Cc1ccc(NC(=O)C2CC(C)CCC2C(C)C)cc1O` (centres unmarked) [H, --C6 H3 Me(p)OH(m)] are the same in “Threshold (average minimum quantity to produce a noticeable cooling effect)” value: 0.1 µg for the first, 0.1 µg for the second.

First: Cc1ccc(NC(=O)C2CC(C)CCC2C(C)C)cc1 (centres unmarked) [H, --C6 H4 Me(p)]
Second: CC1CCC(C(C)C)C(C(=O)Nc2ccc(O)cc2)C1 (centres unmarked) [H, --C6 H4 OH(p)]
The “Threshold (average minimum quantity to produce a noticeable cooling effect)” value of the first is lower: 0.3 µg for the first, 1.4 µg for the second.

Compared with `CC1CCC(C(C)C)C(C(=O)Nc2ccc([N+](=O)[O-])cc2)C1` (centres unmarked) [H, --C6 H4 NO2 (p)], `COc1ccc(NC(=O)C2CC(C)CCC2C(C)C)cc1` (centres unmarked) [H, --C6 H4 OMe(p)] is lower in “Threshold (average minimum quantity to produce a noticeable cooling effect)” value: 0.3 µg for the first, 0.1 µg for the second.

First: CC1CCC(C(C)C)C(C(=O)Nc2ccccc2O)C1 (centres unmarked) [H, --C6 H4 OH(o)]
Second: CC1CCC(C(C)C)C(C(=O)NCc2ccccc2)C1 (centres unmarked) [H, --CH2 Ph]
The “Threshold (average minimum quantity to produce a noticeable cooling effect)” value of the first is lower: 0.5 µg for the first, 10 µg for the second.

Compared with `CC1CCC(C(C)C)C(C(=O)NC2CCCCC2)C1` (centres unmarked) [H, --C6 H11 (cyclo)], `CC1CCC(C(C)C)C(C(=O)NC2CCCCCC2)C1` (centres unmarked) [H, --C7 H13 (cyclo)] is higher in “Threshold (average minimum quantity to produce a noticeable cooling effect)” value: 1 µg for the first, 3 µg for the second.

Going from `CCCCCCCCCCNC(=O)C1CC(C)CCC1C(C)C` (centres unmarked) [H, --C10 H21 (n)] to `CC1CCC(C(C)C)C(C(=O)NCCN)C1` (centres unmarked) [H, --CH2 CH2 NH2], the “Threshold (average minimum quantity to produce a noticeable cooling effect)” value rises from 10 µg to 20 µg.

Going from `CC1CCC(C(C)C)C(C(=O)NCC2CCCCCC2)C1` (centres unmarked) [H, --CH2 (C7 H13 (cyclo)] to `CC1CCC(C(C)C)C(C(=O)NCC(=O)O)C1` (centres unmarked) [H, --CH2 COOH, N-(p-menth-3-oyl) glycine], the “Threshold (average minimum quantity to produce a noticeable cooling effect)” value falls from 20 µg to 16 µg.

`CCOC(=O)CCNC(=O)C1CC(C)CCC1C(C)C` (centres unmarked) [H, --CH2 CH2 COOC2 H5] and `CC(=O)OCCNC(=O)C1CC(C)CCC1C(C)C` (centres unmarked) [H, --CH2 CH2 OCOCH3] are the same in “Threshold (average minimum quantity to produce a noticeable cooling effect)” value: 1.5 µg for the first, 1.5 µg for the second.

Compared with `CCCOC(=O)CNC(=O)C1CC(C)CCC1C(C)C` (centres unmarked) [H, --CH2 COOC3 H7 (n), N-(p-menth-3-oyl)glycine n-propyl ester], `COC(=O)CNC(=O)C1CC(C)CCC1C(C)C` (centres unmarked) [H, --CH2 COOCH3, N-(p-menth-3-oyl)glycine methyl ester] is higher in “Threshold (average minimum quantity to produce a noticeable cooling effect)” value: 0.3 µg for the first, 0.6 µg for the second.

Going from `CC1CCC(C(C)C)C(C(=O)NCC#CCO)C1` (centres unmarked) [H, --CH2 C≡CCH2 OH] to `CC1CCC(C(C)C)C(C(=O)NO)C1` (centres unmarked) [H, --OH], the “Threshold (average minimum quantity to produce a noticeable cooling effect)” value falls from 17 µg to 11 µg.

Compared with `CCOC(=O)CC(C)NC(=O)C1CC(C)CCC1C(C)C` (centres unmarked) [H, --CH(CH3)CH2 COOC2 H5], `CCOC(=O)C(C)NC(=O)C1CC(C)CCC1C(C)C` (centres unmarked) [H, --CH(CH3)COOC2 H5] is lower in “Threshold (average minimum quantity to produce a noticeable cooling effect)” value: 0.8 µg for the first, 0.4 µg for the second.

Same assay, conditions: panel selection criterion, six members

In the case of `CC1CCC(C(C)C)C(O)C1` (centres unmarked) [1-menthol, reference compound], the “average threshold to 1-menthol of selected panel” value is reported as “approximately 0.25 μg”.
